Assay results reported in article PMC2848298 (Bioorganic & medicinal chemistry letters, 2010).
Where two headings read alike, the source gives them in different places.

Legend:
ABCG2 [1] = biological target: T1, ABCG2 (Homo sapiens, UniProt Q9UNQ0)
T1 sequence (Q9UNQ0 1-655): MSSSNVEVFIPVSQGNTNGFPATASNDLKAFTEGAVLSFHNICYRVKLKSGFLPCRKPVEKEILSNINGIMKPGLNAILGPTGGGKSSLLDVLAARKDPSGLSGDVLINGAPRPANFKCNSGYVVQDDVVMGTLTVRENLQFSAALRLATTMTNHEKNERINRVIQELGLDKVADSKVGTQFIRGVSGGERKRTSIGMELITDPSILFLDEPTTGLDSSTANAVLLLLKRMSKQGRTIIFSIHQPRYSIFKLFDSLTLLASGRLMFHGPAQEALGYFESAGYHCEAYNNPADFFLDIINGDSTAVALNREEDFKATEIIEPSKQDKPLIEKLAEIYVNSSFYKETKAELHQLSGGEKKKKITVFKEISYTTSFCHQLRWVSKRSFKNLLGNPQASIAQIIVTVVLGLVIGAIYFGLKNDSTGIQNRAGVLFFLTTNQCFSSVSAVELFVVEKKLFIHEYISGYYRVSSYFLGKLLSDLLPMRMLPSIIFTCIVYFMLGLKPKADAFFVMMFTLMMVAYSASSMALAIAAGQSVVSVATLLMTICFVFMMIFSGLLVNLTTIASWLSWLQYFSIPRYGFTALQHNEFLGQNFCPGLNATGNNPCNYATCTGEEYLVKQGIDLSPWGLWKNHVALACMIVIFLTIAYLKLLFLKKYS

P-glycoprotein (P-gp) = settings: cited from earlier work
ABCG2 [2] = biological target: T1, ABCG2; assay: Cellular accumulation of the ABCG2 substrate pheophorbide-a; settings: PhA accumulation assay

For 2-methoxy-p-coumaric acid [compound 8], the “ABCG2 inhibitory activity (in words)” value (ABCG2 [1]) was “inactive”.
For CO/C(=C\c1ccc(O)cc1)C(=O)N/C=C/c1cc(Br)c(OC)c(Br)c1 [botryllamide A, reference compound], the “Inhibition of export of rhodamine by P-gp” value (P-glycoprotein (P-gp)) is given as “inhibited the export of rhodamine”.
For CO/C(=C\c1ccc(O)cc1)C(=O)N/C=C/c1cc(Br)c(O)c(Br)c1 [botryllamide G], the “Inhibition of efflux of rhodamine out of P-gp-overexpressing cells” value (P-glycoprotein (P-gp); at 50 μM) is given as “not the efflux of rhodamine”.
In the case of CO/C(=C\c1ccc(O)cc1)C(=O)NCC(O)c1ccc(O)cc1 (centres unmarked) [compound 9], the “ABCG2 inhibitory activity (in words)” value (ABCG2 [2]) is reported as “inactive”.
With O=C(/C=C/c1ccc(O)cc1)N/C=C/c1ccc(O)cc1 [compound 18] the “ABCG2 inhibitory activity (in words)” value (ABCG2 [2]; at 100 μM) was “inactive”.
For CO/C(=C\c1ccc(O)c(O)c1)C(=O)N/C=C/c1ccc(O)cc1 [compound 21], the “ABCG2 inhibitory activity (in words)” value (ABCG2 [2]) was “retained inhibitory activity”.
In the case of CO/C(=C\c1cc(Br)c(O)c(Br)c1)C(=O)N/C=C/c1ccc(O)cc1 [compound 22], the “ABCG2 inhibitory activity (in words)” value (ABCG2 [2]) is reported as “observed inhibitory activity”.
With CO/C(=C\c1cc(Br)c(O)c(Br)c1)C(=O)N/C=C/c1ccc(OC(C)=O)cc1 [compound 23] the “ABCG2 inhibitory activity (in words)” value (ABCG2 [2]) was “observed inhibitory activity”.
